Values quoted from earlier work, collected in PubChem BioAssay AID493017 (Abbott Labs, 1994).

target: Platelet-derived growth factor receptor alpha (Homo sapiens) (UniProt P16234); assay: PubChem AID 493017; conditions: WOMBAT literature affinities, multiple human targets; PDGFR; gene PDGFRA; NCBI gene 5156
Sequence (P16234 whole entry, looked up): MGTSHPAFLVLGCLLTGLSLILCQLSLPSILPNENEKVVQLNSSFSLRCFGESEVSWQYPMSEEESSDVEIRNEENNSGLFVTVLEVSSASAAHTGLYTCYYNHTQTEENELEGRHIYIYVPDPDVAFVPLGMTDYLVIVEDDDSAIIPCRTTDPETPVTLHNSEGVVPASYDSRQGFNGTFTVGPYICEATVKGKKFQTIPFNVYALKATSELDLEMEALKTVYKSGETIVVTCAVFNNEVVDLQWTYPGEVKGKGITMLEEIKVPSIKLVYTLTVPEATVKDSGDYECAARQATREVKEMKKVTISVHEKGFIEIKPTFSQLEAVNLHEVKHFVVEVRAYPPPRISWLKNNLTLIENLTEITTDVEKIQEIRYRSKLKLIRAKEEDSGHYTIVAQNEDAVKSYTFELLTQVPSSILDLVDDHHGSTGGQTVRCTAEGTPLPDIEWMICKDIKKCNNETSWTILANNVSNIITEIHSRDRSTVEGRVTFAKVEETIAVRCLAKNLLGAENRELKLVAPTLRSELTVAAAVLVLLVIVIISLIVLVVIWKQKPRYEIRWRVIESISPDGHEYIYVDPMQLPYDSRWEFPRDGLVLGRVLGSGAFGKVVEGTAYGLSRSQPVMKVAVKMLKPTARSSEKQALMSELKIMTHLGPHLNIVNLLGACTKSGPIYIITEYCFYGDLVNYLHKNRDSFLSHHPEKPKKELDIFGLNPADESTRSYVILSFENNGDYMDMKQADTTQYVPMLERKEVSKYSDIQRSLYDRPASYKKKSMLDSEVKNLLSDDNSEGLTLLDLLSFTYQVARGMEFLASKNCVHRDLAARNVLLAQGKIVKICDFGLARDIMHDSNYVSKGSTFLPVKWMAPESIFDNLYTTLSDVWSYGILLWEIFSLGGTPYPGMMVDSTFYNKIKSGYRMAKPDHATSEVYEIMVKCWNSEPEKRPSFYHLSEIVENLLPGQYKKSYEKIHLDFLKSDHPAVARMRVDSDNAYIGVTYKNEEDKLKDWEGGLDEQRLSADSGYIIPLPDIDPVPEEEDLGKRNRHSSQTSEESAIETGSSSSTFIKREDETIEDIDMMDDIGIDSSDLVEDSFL

Row | Structure (SMILES) | IC50 [µM]
1 | c1ccc2ncc(-c3c[nH]c4ccccc34)cc2c1 | 4
2 | COc1ccc(-c2cnc3cc(OC)c(OC)cc3c2)cc1C | 0.2
3 | COc1cc2cccnc2cc1OC | 24.5
4 | COc1cc2cc(C3CCCC3)cnc2cc1OC | 0.224
5 | COc1cc2cc(C3=CCCC3)cnc2cc1OC | 0.0283
6 | Oc1cc2cc(-c3cccnc3)cnc2cc1O | 7.75
7 | COc1ccc(C=Cc2cnc3cc(OC)c(OC)cc3c2)cc1 | 0.0548
8 | COc1cc2cc(CCC3CCCCC3)cnc2cc1OC | 0.387
9 | Fc1cc2cc(-c3ccsc3)cnc2cc1F | 2.83
10 | COc1ccc(CCc2cnc3cc(OC)c(OC)cc3c2)cc1 | 0.4

Further lines, results first:

Row | IC50 [µM] | Structure (SMILES)
11 | 0.0245 | COc1cc2cc(-c3ccc(O)cc3)cnc2cc1OC
12 | 0.245 | COc1cc2cc(-c3c[nH]c4ccccc34)cnc2cc1OC
13 | 0.00387 | COc1ccc(-c2cnc3cc(OC)c(OC)cc3c2)cc1
14 | 0.102 | COc1cc2cc(-c3ccccc3)cnc2cc1OC
15 | 1.87 | COc1cc2cc(-c3ccc(C(=O)O)cc3)cnc2cc1OC
16 | 0.548 | COc1cc2cc(C#CC3CCCCC3)cnc2cc1OC
17 | 1.41 | COc1cccc(-c2cnc3cc(OC)c(OC)cc3c2)c1
18 | 0.0529 | COc1cc2cc(OCc3ccccc3)cnc2cc1OC
19 | 0.0316 | COc1cc2cc(C#Cc3ccccc3)cnc2cc1OC
20 | 0.0212 | COc1cc2cc(-c3ccc(=O)[nH]c3)cnc2cc1OC
21 | 0.04 | COc1cc2cc(NCc3ccccc3)cnc2cc1OC
22 | 2.65 | COc1cc2cc(-c3ccc(Cl)c(Cl)c3)cnc2cc1OC
23 | 0.158 | COc1ccc(-c2cnc3cc(OC)c(OC)cc3c2)s1
